Target: T1, human leukocyte elastase (HLE) (Homo sapiens, UniProt P08246)
T1 construct: purchased Calbiochem Lot 702038
T1 sequence (P08246 30-267): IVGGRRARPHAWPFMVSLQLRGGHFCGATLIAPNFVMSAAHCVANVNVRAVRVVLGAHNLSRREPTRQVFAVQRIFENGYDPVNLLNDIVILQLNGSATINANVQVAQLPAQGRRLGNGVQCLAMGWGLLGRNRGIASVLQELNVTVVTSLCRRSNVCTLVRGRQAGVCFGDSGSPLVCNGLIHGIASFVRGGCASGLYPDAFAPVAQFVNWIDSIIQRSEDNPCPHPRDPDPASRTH
Test: Kinetic parameters for HLE inhibition (release of 7-amino-4-methylcoumarin from N-methoxysuccinyl-alanylprolyl-valyl-7-amido-4-methylcoumarin, fluorescence detection)
Assay type: biochemical
Conditions: 37° C., 0.027 M pH 7.4 phosphate buffer, 1% DMSO, 1% MeCN, NaCl (I=0.15); for kon: read-out: kon (rate of formation of the HLE-inhibitor complex); for Ki: steady state, read-out: Ki^ss (apparent dissociation constant of the HLE-inhibitor complex at steady state)
Excerpt: Km =Michaelis constant for the enzyme-substrate pair (independently determined under the same experimental conditions).

In the case of CC(=O)OCC1=C(C(=O)SC(C)(C)C)N2C(=O)[C@H](Cl)[C@H]2S(=O)(=O)C1 [Comp. 3], the kon is reported as 480000 M⁻¹ s⁻¹ and the Ki is reported as 2.6 nM.

In the case of CC(=O)OCC1=C(C(=O)SCc2ccccc2)N2C(=O)[C@H](Cl)[C@H]2S(=O)(=O)C1 [Comp. 11, Benzyl 3-acetoxymethyl-7S-chloro-8-oxo-5-thia-1-azabicyclo-[4,2,0]oct-2-ene-5,5-dioxide-2-carbothiolate], the kon is reported as 1.26e+06 M⁻¹ s⁻¹ and the Ki is reported as 8.2 nM.

In the case of COCC1=C(C(=O)SC(C)(C)C)N2C(=O)[C@H](Cl)[C@H]2S(=O)(=O)C1 [Comp. 59, t-Butyl 7S-chloro-3-methoxymethyl-8-oxo-5-thia-1-azabicyclo [4,2,0]oct-2-ene-5,5-dioxide-2-carbothiolate], the kon is reported as 150000 M⁻¹ s⁻¹ and the Ki is reported as 16 nM.

Cn1nnnc1SCC1=C(C(=O)SC(C)(C)C)N2C(=O)[C@H](Cl)[C@H]2S(=O)(=O)C1 [Comp. 60, t-Butyl 7S-chloro-3-(1-methyl-1,2,3,4-tetrazol-5-yl) thiomethyl-8-oxo-5-thia-1-azabicyclo[4,2,0]oct-2-ene-5,5-dioxide-2-carbothiolate] was tested, and the Ki was 4.3 nM.
